# According to paper PMC8769378, “Underlining the Importance of Peripheral Protic Functional Groups to Enhance the Proton Exchange of Gd-Based MRI Contrast Agents” (Inorganic Chemistry, 2021):
# Assay: Stability constants of Gd^III complexes (out-of-cell pH potentiometry)
# Type: physicochemical
# Protocol: The stability and protonation constants of Ca^2+, Zn^2+, and Cu^2+ complexes formed with the L1 ligand were determined by pH potentiometric titration. The metal-to-ligand concentration ratio was 1:1 (the concentration of the ligand was generally 0.002 M). The protonation constants of the GdL1 and GdL2 complexes were determined using pH potentiometry by titrating the preprepared complexes from pH = 3.0 to pH = 12 for GdL2 and from pH = 4.0 to pH = 12 for GdL1 with 0.2 M NaOH. The stability constants of GdL2 were determined by the “out-of-cell” technique because of the slow formation reaction. The pH range of the complexation equilibria and the time needed to reach the equilibria were determined by relaxometry for the formation of GdL2. […] For the calculation of the stability constants of GdL2, besides the protonation constants of ligands, the stability constants of the diprotonated *Gd(H2L2) out-of-cage complexes (considered as intermediates) were also used as fixed values, which were calculated from the pH potentiometric titration curve of the Gd^3+–L2 system obtained in the pH range 1.7–4.0.
# For the pH measurements and titrations, the Metrohm 888 Titrando titration workstation Metrohm-6.0234.110 combined electrode was used. […] For the calculation of [H^+] from the measured pH values, the method proposed by Irving et al. was used as follows.[34] […]
compound,measurement,setting,value
"O=C(O)CN1CCN(CC(=O)O)CCN(C[C@@H](O)C(=O)O)CCN(CC(=O)O)CC1 [L2, (R)2,2′,2″-(10-(2-Carboxy-2-hydroxyethyl)-1,4,7,10-tetraazacyclododecane-1,4,7-triyl) Triacetic Acid]","GdL (log KGdL, stability constant)","I = 0.15 M NaCl, 298 K",19.26 (3)
same,"GdH2L (log K, stability constant of the protonated *Gd(H2L) out-of-cage intermediate)","KGd(H2L)=[Gd(H2L)]/[Gd3+][H2L], 0.15 M NaCl, 25 °C",6.73 (3)
